According to patent US20120095036A1, “NOVEL SUBSTITUTED INDAZOLE AND AZA-INDAZOLE DERIVATIVES AS GAMMA SECRETASE MODULATORS” (priority 2009, published 2012):

Key:
Aβtotal = test: In vivo efficacy: Aβtotal in brain (ELISA); design: species or system mouse; conditions: brain soluble fraction; typical protocol: single oral dose, overnight fasted animals, after four hours
Source text: (§1) To determine whether acute administration of an Aβ42 lowering agent would reduce Aβ42 levels in vivo, non-transgenic rodents, e.g. mice or rats were used. Alternatively, two to three month old Tg2576 mice expressing APP695 containing the “Swedish” variant can be used or a transgenic mouse model developed by Dr. Fred Van Leuven (K.U.Leuven, Belgium) and co-workers, with neuron-specific expression of a clinical mutant of the human amyloid precursor protein [V717I] (Moechars et al., 1999 J. Biol. Chem. 274, 6483). Young transgenic mice have high levels of Aβ in the brain but no detectable Aβ deposition. At approximately 6-8 months of age, the transgenic mice start to display spontaneous, progressive accumulation of β-amyloid (A13) in the brain, eventually resulting in amyloid plaques within the subiculum, hippocampus and cortex. Animals treated with the Aβ42 lowering agent were examined and compared to those untreated or treated with vehicle and brain levels of soluble Aβ42 and total Aβ would be quantitated by standard techniques, for example, using ELISA. Treatment periods varied from hours to days and were adjusted based on the results of the Aβ42 lowering once a time course of onset of effect could be established.
(§2) A typical protocol for measuring Aβ42 lowering in vivo is shown but it is only one of many variations that could be used to optimize the levels of detectable Aβ. For example, Aβ42 lowering compounds were formulated in 20% of Captisol® (a sulfobutyl ether of β-cyclodextrin) in water or 20% hydroxypropyl β cyclodextrin. The Aβ42 lowering agents were administered as a single oral dose or by any acceptable route of administration to overnight fasted animals. After four hours, the animals were sacrificed and Aβ42 levels were analysed.
(§3) Blood was collected by decapitation and exsanguinations in EDTA-treated collection tubes. Blood was centrifuged at 1900 g for 10 minutes (min) at 4° C. and the plasma recovered and flash frozen for later analysis. The brain was removed from the cranium and hindbrain. The cerebellum was removed and the left and right hemisphere were separated. The left hemisphere was stored at −18° C. for quantitative analysis of test compound levels. The right hemisphere was rinsed with phosphate-buffered saline (PBS) buffer and immediately frozen on dry ice and stored at −80° C. until homogenization for biochemical assays.
(§4) Mouse brains were resuspended in 10 volumes of 0.4% DEA (diethylamine)/50 mM NaCl pH 10 (for non-transgenic animals) or 0.1% 3-[(3-cholamidopropyl)-dimethyl-ammonio]-1-propanesulfonate (CHAPS) in tris buffered saline (TBS) (for transgenic animals) containing protease inhibitors (Roche-11873580001 or 04693159001) per gram of tissue, e.g. for 0.158 g brain, add 1.58 ml of 0.4% DEA. All samples were sonicated for 30 sec on ice at 20% power output (pulse mode). Homogenates were centrifuged at 221.300×g for 50 min. The resulting high speed supernatants were then transferred to fresh tubes and were optionally further purified before the next step. A portion of the supernatant was neutralized with 10% 0.5 M Tris-HCl and this was used to quantify Aβtotal.
(§5) The obtained supernatants were purified with Water Oasis HLB reverse phase columns (Waters Corp., Milford, Mass.) to remove non-specific immunoreactive material from the brain lysates prior subsequent Aβ detection. Using a vacuum manifold, all solutions were passed through the columns at a rate of approximately 1 ml/min, so the vacuum pressure was adjusted accordingly throughout the procedure. Columns were preconditioned with 1 ml of 100% MeOH, before equilibration with 1 ml of H2O, Non-neutralized brain lysates were loaded onto the columns. The loaded samples were then washed twice with the first wash performed with 1 ml of 5% MeOH, and the second wash with 1 ml of 30% MeOH. Finally, the Aβ was eluted from the columns and into 100×30 mm glass tubes, with a solution of 90% MeOH with 2% NH4OH. […]

Aβ42 [1] = test: Method 1: Aβ42 sandwich ELISA on media of SKNBE2 cells carrying APP 695 wild type (γ-secretase-modulating activity); format: cell-based; conditions: Homo sapiens, SKNBE2 cells APP 695 wild type, 18 hours
Summary of the method: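 SKNBE2 cells expressing wild-type APP695 exposed to compounds for 18 h in Ultraculture with 1% glutamine. Secreted Aβ42 in media quantified by sandwich ELISA (C-terminal capture, biotinylated 3D6 detection, TMB, 450 nm). IC50 from 4-parameter fit, top/bottom fixed 100/0, Hill slope fixed 1; toxicity checked by WST-1.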

Aβ42 [2] = test: In vivo efficacy: Aβ42 lowering in brain (ELISA); design: species or system mouse; conditions: brain soluble fraction; typical protocol: single oral dose, overnight fasted animals, after four hours
Source text: as §1, §2, §3, §4, §5

Row | SMILES | Aβtotal (% Ctrl) _Mean (Aβtotal) [% Ctrl] | IC50 (Aβ42 [1]) [nM] | Aβ42 (% Ctrl) _Mean (Aβ42 [2]) [% Ctrl]
1 | COc1cccc(-n2cc3cccc(Nc4ccc(-n5cnc(C)c5)c(OC)c4)c3n2)c1 [Compound 1, N-[3-methoxy-4-(4-methyl-1H-imidazol-1-yl)phenyl]-2-(3-methoxyphenyl)-2H-indazol-7-amine] | 108 | 46 | 94
2 | COc1cccc(-n2nc3c(Nc4ccc(-n5cnc(C)c5)c(OC)c4)cccc3c2C)c1 [Compound 2, N-[3-methoxy-4-(4-methyl-1H-imidazol-1-yl)phenyl]-2-(3-methoxyphenyl)-3-methyl-2H-indazol-7-amine] | 90 | 7 | 59
3 | COc1cc(Nc2cccc3cn(CC(F)(F)F)nc23)ccc1-c1cnc(C)o1 [Compound 6, N-[3-methoxy-4-(2-methyl-5-oxazolyl)phenyl]-2-(2,2,2-trifluoroethyl)-2H-indazol-7-amine] | 95 | 152 | 79
4 | COc1cc(Nc2cccc3cn(Cc4ccc(F)cc4)nc23)ccc1-n1cnc(C)c1 [Compound 15, 2-[(4-fluorophenyl)methyl]-N-[3-methoxy-4-(4-methyl-1H-imidazol-1-yl)phenyl]-2H-indazol-7-amine] | 94 | 75 | 69
5 | COc1cccc(-n2nc3c(Nc4ccc(-c5cnc(C)o5)cc4)cccc3c2C)c1 [Compound 29, 2-(3-methoxyphenyl)-3-methyl-N-[4-(2-methyl-5-oxazolyl)phenyl]-2H-indazol-7-amine] | 98 | 28 | 96
6 | COc1cc(Nc2cccc3cn(CC4CC4)nc23)ccc1-c1cnc(C)o1.Cl [Compound 38, 2-(cyclopropylmethyl)-N-[3-methoxy-4-(2-methyl-5-oxazolyl)phenyl]-2H-indazol-7-amine HCl] | 106 | 518 | 123
7 | COc1cccc(-n2nc3c(Nc4ccc(-c5cnc(C)o5)c(OC)c4)nccc3c2C)c1 [Compound 42, N-[3-methoxy-4-(2-methyl-5-oxazolyl)phenyl]-2-(3-methoxyphenyl)-3-methyl-2H-pyrazolo[3,4-c]pyridin-7-amine] | 100 | 91 | 104
